Values of other authors as cited in patent US20050245504A1, “Treatment of diseases with combinations of alpha 7 Nicotinic Acetylcholine Receptor agonists and other compounds” (priority 2002, published 2005).
Like-named read-outs stand apart in the source and are kept apart here. Each block holds one molecule with its values, some of them ahead of it.

How the values were obtained:
[1] = biological target: T1, 5HT3R (Homo sapiens, UniProt P46098)
T1 sequence (P46098 24-478): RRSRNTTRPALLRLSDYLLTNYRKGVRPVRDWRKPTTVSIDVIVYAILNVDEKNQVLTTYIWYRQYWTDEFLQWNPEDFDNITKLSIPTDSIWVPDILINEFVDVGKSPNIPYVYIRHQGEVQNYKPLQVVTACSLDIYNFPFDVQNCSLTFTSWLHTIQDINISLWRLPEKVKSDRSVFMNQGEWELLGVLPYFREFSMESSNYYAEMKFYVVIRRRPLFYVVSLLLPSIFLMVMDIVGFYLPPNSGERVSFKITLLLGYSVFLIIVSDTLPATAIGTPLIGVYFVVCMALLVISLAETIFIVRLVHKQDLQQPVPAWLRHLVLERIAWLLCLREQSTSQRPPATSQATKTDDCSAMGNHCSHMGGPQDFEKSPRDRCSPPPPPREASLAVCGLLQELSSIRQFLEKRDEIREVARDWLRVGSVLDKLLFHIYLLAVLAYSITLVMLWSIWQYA

[2] = biological target: α7 nAChR (Homo sapiens, UniProt P36544)
Sequence of α7 nAChR (P36544 23-502): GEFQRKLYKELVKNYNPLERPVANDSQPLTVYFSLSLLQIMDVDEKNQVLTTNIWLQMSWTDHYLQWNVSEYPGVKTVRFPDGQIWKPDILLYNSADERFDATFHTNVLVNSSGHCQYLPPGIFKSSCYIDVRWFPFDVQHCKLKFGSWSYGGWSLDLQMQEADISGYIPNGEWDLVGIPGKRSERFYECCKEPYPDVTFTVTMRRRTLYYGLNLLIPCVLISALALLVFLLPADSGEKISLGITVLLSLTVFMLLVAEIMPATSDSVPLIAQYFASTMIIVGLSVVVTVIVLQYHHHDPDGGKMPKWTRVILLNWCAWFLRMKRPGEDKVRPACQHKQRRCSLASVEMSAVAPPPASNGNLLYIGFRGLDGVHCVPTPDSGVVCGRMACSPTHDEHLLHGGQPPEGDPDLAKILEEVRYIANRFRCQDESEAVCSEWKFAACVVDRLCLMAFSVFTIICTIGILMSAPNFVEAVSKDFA

Compound: Cc1cc([C@@H]2CCCN2C)on1 [ABT-418]
cognition and attention (clinical trials of Alzheimer's disease and attention-deficit disorders): improves cognition and attention

activity at the 5HT3R [1]: little activity
Compound: COc1ccc(/C=C2\CCCN=C2c2cccnc2)c(OC)c1 [GTS-21]

activity at the α7 nAChR [2]: little activity
Compound: Cc1nccn1CC1CCc2c(c3ccccc3n2C)C1=O (stereo not shown) [Ondansetron]

Compound: CN1CCCC1c1cccnc1 (stereo not shown) [nicotine]
cognition and attention (human, in vivo): increases cognition and attention
